These results are taken from patent publication US8865909B2, “Anti-biofilm agents” (Yissum Research Development Company of the Hebrew …, priority 2008, dated 2014).

In test [1] the test system is Candida albicans (ATCC 90028). The experiment in a line: C. albicans biofilm formation, XTT metabolic reduction assay. In kind it is cell-based. As for the experimental part:
Candida albicans (ATCC 90028) was used to study the anti-biofilm formation activity of exemplary ABF agents according to embodiments of the present invention.
The C. albicans strain was propagated in yeast peptone dextrose (YPD) medium (1% wt/vol yeast extract, 2% wt/vol peptone, 2% wt/vol dextrose). Batches of medium (30 ml in 125 ml Erlenmeyer flask) were inoculated with material from Sabouraud dextrose agar (SDA) plates containing freshly grown C. albicans and incubated overnight in an orbital shaker (200 rpm) at 30° C. under aerobic conditions. C. albicans grew in the budding-yeast phase under these conditions. Cells were harvested and washed twice in sterile phosphate-buffered saline (PBS) (Oxoid Ltd, Basingstoke, Hampshire, UK). Thereafter the cells were resuspended in RPMI 1640 supplemented with L-glutamine and buffered with morpholinepropanesulfonic acid (MOPS) (Sigma Chemical Co., St. Louis, Mo.) and adjusted to the desired density after counting with a hematocytometer.
Biofilms of C. albicans were formed in the wells on commercially available presterilized, polystyrene, flat-bottomed, 96-well microtiter plates (Nunc—Nunclon™ Surface, Roskilde, Denmark). Biofilms were formed by pipetting 100 μl of the standardized cell suspensions (5×10^6 cells/ml) into selected wells of the microtiter plate and incubating the plate for 72 hours at 37° C. After 24 hours and 48 hours of the biofilm formation, the medium was replaced by fresh RPMI 1640 medium.
Working concentrations of farnesol (300 μM; 66 μg/ml) and the exemplary ABF agents TZD10 and TZD11 (200 μg/ml) were prepared in RPMI 1640 by using the stock solutions. […]
The effect of the compounds on biofilm formation was measured by using a metabolic reduction assay (XTT kit). […] The colorimetric change (a reflection of the metabolic activity of the biofilm) was measured with a microtiter plate reader at 492 nm. The anti-biofilm formation activity effect of the tested agents was expressed as the percentage of the optical density (OD) of the treated wells compared to that of control (untreated) wells for the XTT assays. […]
For orientation: Formazan colour is commonly taken as a measure of viable cells.

Test [2] has as its system Candida albicans (ATCC 90028) preformed biofilm. The test can be described thus: C. albicans preformed (mature) biofilm, XTT reduction assay. The following applies: for activity on the preformed biofilm: 24 hours on 48-hour biofilm. The test is classed as cell-based. As for the experimental part: The effect of the compounds on biofilm formation was measured by using a metabolic reduction assay (XTT kit). Briefly, 100 μl of the XTT reaction solution (Biological Industries, Israel Beit Haemek Ltd.) was added to each well, and microtiter plate was then incubated in the dark for 2 hours at 37° C. The colorimetric change (a reflection of the metabolic activity of the biofilm) was measured with a microtiter plate reader at 492 nm. The anti-biofilm formation activity effect of the tested agents was expressed as the percentage of the optical density (OD) of the treated wells compared to that of control (untreated) wells for the XTT assays. Light microscopic examination of biofilms formed in microtiter plates was performed in parallel by using an inverted microscope.
C. albicans biofilm was formed during 48 hours at 37° C. on the surfaces of microtiter plates by using the protocol described hereinabove, and the tested ABF agents were then added to the preformed biofilm. Following biofilm formation the spent medium and the nonadherent cells were removed by washing the biofilms three times in sterile PBS. The tested compounds, the ABF agent at 25, 50, 100 μg/ml, fluconazole at 31.25, 62.5, 125 μg/ml, in fresh RPMI 1640—farnesol at 150 μM (33 μg/ml), were added to selected wells of the microtiter plates. In addition, the effect of combination of farnesol (33 μg/ml) with fluconazole (31.25 μg/ml) and the ABF agent (25 or 50 μg/ml) with fluconazole (31.25 μg/ml) was examined on preformed biofilms. The plates were then incubated for 24 hours at 37° C. The effect of the compounds on pre-formed biofilms was then estimated by using the XTT reduction assay as described hereinabove.

On to `OC(Cn1cncn1)(Cn1cncn1)c1ccc(F)cc1F` [fluconazole], for which, in test [1] (31-125 μg/ml, 72 hours), the “reduction in the metabolic activity (XTT), biofilm formation” value is listed as “up to 77%”. In addition, in test [2], the “activity on the preformed biofilm” value is listed as “no activity”.

In the case of `CC(C)=CCC/C(C)=C/CC/C(C)=C/CO` [farnesol], the “reduction in the metabolic activity of the yeast cells (XTT)” value in test [1] (33 μg/ml, 72 hours) was 43%. Further, in test [1] (removed after 48 hours, fluconazole 31.25 μg/ml for another 24 hours), the “additive effect of combination with fluconazole compared to farnesol alone” value is reported as “did not show any additive effect”. Also, in test [2], the “activity on the preformed biofilm” value was “no activity”. Further, the “additive anti-biofilm effect of adding fluconazole” value in test [2] (farnesol 33 μg/ml + fluconazole 31.25 μg/ml, pre-formed biofilm) is on record as “no additive anti-biofilm effect”.
